Several values for one entry are separate records, joined by “and”; a condition that tells them apart may be missing. Equal values may be shown once. Toxic doses and inconclusive results are not listed. Rule as the data show it: active = T/C of 150% or more; inactive = T/C below 125%.
Test system: L1210 leukemia ip in BDF1 mice, survival T/C
Assay: NCI In Vivo Anticancer Drug Screen. Data for tumor model L1210 Leukemia (intraperitoneal) in B6D2F1 (BDF1) mice
Settings: endpoint: mean survival time, higher = longer survival
Summary of the method: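 Transplantable tumor model; survival measured in treated vs vehicle control mice. Value = treated/control.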

[1] = dose: 100.0 mg/kg/injection, schedule: Q01DX001 (ip), vehicle: saline with Tween-80
[2] = dose: 100.0 mg/kg/injection, schedule: Q04DX003 (ip), vehicle: saline with Tween-80
[3] = dose: 200.0 mg/kg/injection, schedule: Q01DX001 (ip), vehicle: saline with Tween-80
[4] = dose: 400.0 mg/kg/injection, schedule: Q01DX001 (ip), vehicle: saline with Tween-80
[5] = dose: 100.0 mg/kg/injection, schedule: Q01DX009 (ip), vehicle: saline with Tween-80
[6] = dose: 200.0 mg/kg/injection, schedule: Q01DX009 (ip), vehicle: saline with Tween-80
[7] = dose: 400.0 mg/kg/injection, schedule: Q01DX009 (ip), vehicle: saline with Tween-80
[8] = dose: 50.0 mg/kg/injection, schedule: Q04DX003 (ip), vehicle: saline with Tween-80
[9] = dose: 100.0 mg/kg/injection, schedule: Q04DX002 (ip), vehicle: saline with Tween-80
[10] = dose: 200.0 mg/kg/injection, schedule: Q04DX002 (ip), vehicle: saline with Tween-80
[11] = dose: 400.0 mg/kg/injection, schedule: Q04DX002 (ip), vehicle: saline with Tween-80
[12] = dose: 100.0 mg/kg/injection, schedule: Q01DX001 (ip), vehicle: saline
[13] = dose: 100.0 mg/kg/injection, schedule: Q04DX003 (ip), vehicle: saline
[14] = dose: 200.0 mg/kg/injection, schedule: Q01DX001 (ip), vehicle: saline
[15] = dose: 200.0 mg/kg/injection, schedule: Q04DX003 (ip), vehicle: saline
[16] = dose: 400.0 mg/kg/injection, schedule: Q04DX003 (ip), vehicle: saline
[17] = dose: 50.0 mg/kg/injection, schedule: Q01DX009 (ip), vehicle: saline with Tween-80
[18] = dose: 100.0 mg/kg/injection, schedule: Q01DX009 (ip), vehicle: Klucel (hydroxypropylcellulose) (HPC)
[19] = dose: 200.0 mg/kg/injection, schedule: Q01DX009 (ip), vehicle: Klucel (hydroxypropylcellulose) (HPC)
[20] = dose: 400.0 mg/kg/injection, schedule: Q01DX009 (ip), vehicle: Klucel (hydroxypropylcellulose) (HPC)
[21] = dose: 100.0 mg/kg/injection, schedule: Q01DX001 (ip), vehicle: carboxymethylcellulose (CMC)
[22] = dose: 200.0 mg/kg/injection, schedule: Q01DX001 (ip), vehicle: carboxymethylcellulose (CMC)
[23] = dose: 400.0 mg/kg/injection, schedule: Q01DX001 (ip), vehicle: carboxymethylcellulose (CMC)

Measured: T/C

O=C(c1ccccc1)C1OC1c1ccc([N+](=O)[O-])cc1 (stereo not given)
inactive: [1] 91 % of control | [2] 100 % of control | [3] 88 % of control | dose: 200.0 mg/kg/injection, schedule: Q04DX003 (ip), vehicle: saline with Tween-80 103 % of control | [4] 88 % of control | dose: 400.0 mg/kg/injection, schedule: Q04DX003 (ip), vehicle: saline with Tween-80 100 % of control

CCCc1cc(CCC)nc(NNc2nc(CCC)cc(CCC)n2)n1
inactive: [5] 104 % of control | [6] 96 % of control | [7] 110 % of control

CCC/C=N/Nc1ccnc(SCc2ccccc2)n1
inactive: dose: 75.0 mg/kg/injection, schedule: Q01DX009 (ip), vehicle: DMSO 88 % of control

CC(C)OC(=O)c1ccc([N+](=O)[O-])cc1
inactive: dose: 100.0 mg/kg/injection, schedule: Q04DX002 (ip), vehicle: Klucel (hydroxypropylcellulose) (HPC) 95 % of control | dose: 200.0 mg/kg/injection, schedule: Q04DX002 (ip), vehicle: Klucel (hydroxypropylcellulose) (HPC) 110 % of control | dose: 400.0 mg/kg/injection, schedule: Q04DX002 (ip), vehicle: Klucel (hydroxypropylcellulose) (HPC) 95 % of control

CCCN(CCC)CP(=O)(CN(CCC)CCC)CN(CCC)CCC
inactive: dose: 25.0 mg/kg/injection, schedule: Q04DX003 (ip), vehicle: saline with Tween-80 92 % of control | [8] 90 % of control | [2] 93 % of control

Cn1c2ccccc2c2n[nH]c(=S)nc21
inactive: [9] 104 % of control | [10] 93 % of control | [11] 101 % of control

S=C(NCc1ccco1)NCc1ccco1
inactive: dose: 155.0 mg/kg/injection, schedule: Q01DX Z (ip), vehicle: methylcellulose (MC) 92 % of control | dose: 233.0 mg/kg/injection, schedule: Q01DX Z (ip), vehicle: methylcellulose (MC) 100 % of control

F[Si]1(c2cccc(Br)c2)c2ccccc2-c2ccccc21
inactive: [1] 103 % of control | [5] 103 % of control | [3] 100 % of control | [6] 101 % of control | [4] 100 % of control | [7] 104 % of control

CC(NC(=O)NCCCl)C1CC1 (stereo not given)
inactive: dose: 100.0 mg/kg/injection, schedule: Q01DX001 (ip), vehicle: Klucel (hydroxypropylcellulose) (HPC) 106 % of control | dose: 100.0 mg/kg/injection, schedule: Q04DX003 (ip), vehicle: Klucel (hydroxypropylcellulose) (HPC) 97 % of control | dose: 200.0 mg/kg/injection, schedule: Q01DX001 (ip), vehicle: Klucel (hydroxypropylcellulose) (HPC) 103 % of control | dose: 200.0 mg/kg/injection, schedule: Q04DX003 (ip), vehicle: Klucel (hydroxypropylcellulose) (HPC) 100 % of control | dose: 400.0 mg/kg/injection, schedule: Q01DX001 (ip), vehicle: Klucel (hydroxypropylcellulose) (HPC) 103 % of control | dose: 400.0 mg/kg/injection, schedule: Q04DX003 (ip), vehicle: Klucel (hydroxypropylcellulose) (HPC) 90 % of control

CCCCC(CCCC)CCCC
inactive: [9] 97 % of control | [10] 106 % of control | [11] 103 % of control

O=S1(=O)C=Cc2ccccc21
inactive: [12] 106 % of control | dose: 100.0 mg/kg/injection, schedule: Q01DX009 (ip), vehicle: acetone 92 % of control | [13] 95 % of control | [14] 106 % of control | dose: 200.0 mg/kg/injection, schedule: Q01DX009 (ip), vehicle: acetone 91 % of control | [15] 97 % of control | dose: 400.0 mg/kg/injection, schedule: Q01DX001 (ip), vehicle: saline 100 % of control | dose: 400.0 mg/kg/injection, schedule: Q01DX009 (ip), vehicle: acetone 97 % of control | [16] 88 % of control

CC(C)N=Cc1cc(I)cc(I)c1O.CC(C)N=Cc1cc(I)cc(I)c1O.[Co]
inactive: [13] 88 % of control | [15] 94 % of control | [16] 102 % of control

CC1=NCCN=C(C)C1
inactive: [13] 96 % of control | [15] 98 % of control | [16] 112 % of control

CC(=O)Nc1ccc(NC(=O)C2C3C=CC(C3)C2C(=O)O)cc1 (stereo not given)
inactive: [17] 101 % of control | [5] 107 % of control | [6] 93 % of control

CCCCCCC1CC1
inactive: dose: 50.0 mg/kg/injection, schedule: Q01DX009 (ip), vehicle: saline 94 % of control | dose: 100.0 mg/kg/injection, schedule: Q01DX009 (ip), vehicle: saline 102 % of control | dose: 200.0 mg/kg/injection, schedule: Q01DX009 (ip), vehicle: saline 102 % of control

NC(N)=N/N=C/c1ccc(Cl)cc1Cl
inactive: dose: 30.0 mg/kg/injection, schedule: Q01DX010 (oral), vehicle: saline 102 % of control | dose: 44.0 mg/kg/injection, schedule: Q01DX010 (oral), vehicle: saline 100 % of control | dose: 50.0 mg/kg/injection, schedule: Q01DX001 (ip), vehicle: saline 100 % of control | dose: 63.0 mg/kg/injection, schedule: Q01DX Z (ip), vehicle: saline 101 % of control | dose: 66.0 mg/kg/injection, schedule: Q01DX010 (oral), vehicle: saline 104 % of control | dose: 99.0 mg/kg/injection, schedule: Q01DX010 (oral), vehicle: saline 98 % of control | [12] 106 % of control | [14] 108 % of control

CNC(=O)Nc1c(C)cccc1Cl
inactive: [18] 94 % of control | [19] 95 % of control | [20] 105 % of control

O=C(NC(=S)Nc1ccc(F)cc1)c1cccc([N+](=O)[O-])c1
inactive: dose: 12.5 mg/kg/injection, schedule: Q01DX009 (ip), vehicle: saline with Tween-80 97 % of control and 98 % of control | dose: 25.0 mg/kg/injection, schedule: Q01DX009 (ip), vehicle: saline with Tween-80 94 % of control and 97 % of control | [8] 100 % of control | [1] 97 % of control | [9] 101 % of control | [2] 97 % of control | [3] 95 % of control | [10] 93 % of control and 97 % of control

CSc1ccc(C)cc1C
inactive: [18] 105 % of control | [19] 103 % of control | [20] 105 % of control

OCC1SCCS1
inactive: [9] 101 % of control | [10] 97 % of control | [11] 90 % of control

COC(=O)c1cc(C)cc(N(c2ccccc2[N+](=O)[O-])S(=O)(=O)c2ccc(C)cc2)c1C
inactive: [21] 96 % of control | [22] 104 % of control | [23] 98 % of control

N#C/C=C/c1cccc([N+](=O)[O-])c1
inactive: [5] 102 % of control | [6] 93 % of control | [7] 98 % of control

CN(C)c1ccc(/C=C(\C#N)c2ccccc2)cc1
inactive: [1] 87 % of control | [3] 88 % of control

Cc1ccc(O)c(C(=O)c2ccccc2)c1
inactive: dose: 50.0 mg/kg/injection, schedule: Q01DX001 (ip), vehicle: carboxymethylcellulose (CMC) 96 % of control | [21] 99 % of control | [22] 89 % of control | [23] 94 % of control

CC(C)(CO)COS(=O)(=O)c1ccc(Br)cc1
inactive: [17] 89 % of control
